# According to PubChem BioAssay AID2060620 (Molecular Pharmacology Branch, DTP, NCI, 2025):
# pIC50: −log10 of the molar value.
# Test system: 328373-195-R-J1-PDC complex spheroids, viability % test/control
# Experiment: Anticancer human tumor 328373-195-R-J1-PDC patient-derived head and neck squamous carcinoma cell line growth inhibition [CLK]
# Settings: for pIC50: curve of first compound; for viability, T/C: stronger effect = lower value
# From the text: A high-throughput screen of multi-cell type tumor spheroids was designed to identify active combinations of […] and targeted small molecules. Complex spheroids include a stromal component modeled by human endothelial cells (HUVEC) and fibroblasts modeled by human mesenchymal stem cells (MSCs). The concentration ranges selected for each drug and investigational agent were based upon clinically achievable concentrations if the clinical Cmax of the agent was known.
# Compounds. The drugs and investigational agents: cirtuvivint (SM08502; NSC835563), CC-671 (NSC850746), vemurafenib (NSC761431), tapotoclax (NSC804041), sotorasib (NSC818433), adagrasib (NSC831453), MRTX-1133 (NSC836407), BAY2416964 (NSC825713), copanlisib (NSC816437), inavolisib (NSC800729), abemaciclib (NSC768073), osimertinib (NSC779217), entinostat (NSC756642), eltanexor (KPT-8602, NSC794443), venetoclax (NSC766270), ceralasertib (NSC777638), bortezomib (NSC756655), olaparib (NSC753686), talazoparib (NSC767125), alisertib (NSC759677), peposertib (NSC802822), gemcitabine (NSC613327), 5-fluorouracil (NSC19893), SN-38 (NSC673596), oxaliplatin (NSC266046), paclitaxel (NSC125973), and doxorubicin (NSC123127), were obtained from the National Cancer Institute (NCI) Developmental Therapeutics Program Chemical Repository. The FDA-approved anticancer drug set is available from the Developmental Therapeutics Program at https://dtp.cancer.gov/organization/dscb/obtaining/available plates.htm. […] The stock solutions were prepared in dimethyl sulfoxide (DMSO, Sigma-Aldrich, St. Louis, MO, cat. D2650), except for the platinum complexes which were prepared in saline (Quality Biological, Gaithersburg, MD, cat. 114-055-101), at 800-fold the tested concentration and stored at -70 degrees C prior to their use. All drugs and investigational agents were tested over a range starting from a high concentration at or near the clinical Cmax and decreasing in half-log increments. If the clinical Cmax for an agent had not been determined, the highest concentration tested was 10 microM.
# Cell Culture. All cells were maintained in an incubator at 37 degrees C and 5% CO2 with 95% humidity. The PDC lines were cultured according to standard operating procedures established by the NCI PDMR. Briefly, all PDCs were thawed and cultured in Matrigel-coated flasks prepared with a working solution of 1X Ham's F-12 nutrient mix, without supplementation (Invitrogen, Waltham, MA, cat. 11765054), 100 U/mL penicillin-streptomycin (Invitrogen, cat. 15140122), and 2.5% Matrigel (Corning Inc., Corning, NY, cat. 354248) for the first three passages. The 947758-054-R-J2-PDC line was cultured in 6B/Colon 1A media, which includes advanced DMEM/F-12 (Thermo Fisher Scientific, cat. 12634028), 10 mM HEPES (Thermo Fisher Scientific, cat. 15630080), 1X GlutaMAX supplement (Thermo Fisher Scientific, cat. 35050061), 0.1 mg/mL primocin (InvivoGen, cat. ant-pm-2), 10% defined fetal bovine serum, heat inactivated (HyClone Laboratories Inc., cat. SH30070.03HI), 1.25 mM N-Acetyl-L-cysteine (Sigma-Aldrich, cat. A9165), 10 mM nicotinamide (Sigma-Aldrich, cat. N0636), 1X B-27 supplement (Thermo Fisher Scientific, cat. 17504044), 1X N-2 supplement (Thermo Fisher Scientific, cat. 17502048), and 10 microM Y-27632 dihydrochloride (Tocris Bioscience, cat. 1254). The 876862-298-R-J1-PDC was cultured in 6E media, which includes all 6B/Colon 1A media components plus 50% L-WRN conditioned media (ATCC, cat. CRL-3276), 50 ng/mL recombinant human EGF recombinant protein (hEGF; Thermo Fisher Scientific, cat. PHG0311), 10 ng/mL recombinant human fibroblast growth factor 10 (hGFG-10; PeproTech, cat. 100-26), 1 ng/mL recombinant human fibroblast growth factor 2 (hFGF-2; PeproTech, cat. 100-18B), and 1 µM prostaglandin E2 (PGE2; Tocris, cat. 2296). The 227483-062-R1-J1-PDC line was cultured in Panc media, containing all 6E components except hFGF-2, with the addition of 500 nM SB-431542 (Selleckchem, cat. S1067) and 10 nM gastrin (Tocris, cat. 3006). […]
# [1] = second compound 0.0316 µM, first compound 0.0316 µM
# [2] = second compound 0.0316 µM, first compound 0.1 µM
# [3] = second compound 0.0316 µM, first compound 0.316 µM
# [4] = second compound 0.0316 µM, first compound 1 µM
# [5] = second compound 0.0316 µM, first compound 3.16 µM
# [6] = second compound 0.0316 µM, first compound 10 µM
# [7] = second compound 0.1 µM, first compound 0.0316 µM
# [8] = second compound 0.1 µM, first compound 0.1 µM
# [9] = second compound 0.1 µM, first compound 0.316 µM
# [10] = second compound 0.1 µM, first compound 1 µM
# [11] = second compound 0.1 µM, first compound 3.16 µM
# [12] = second compound 0.1 µM, first compound 10 µM
# [13] = second compound 0.316 µM, first compound 0.0316 µM
# [14] = second compound 0.316 µM, first compound 0.1 µM
# [15] = second compound 0.316 µM, first compound 0.316 µM
# [16] = second compound 0.316 µM, first compound 1 µM
# [17] = second compound 0.316 µM, first compound 3.16 µM
# [18] = second compound 0.316 µM, first compound 10 µM
# [19] = second compound 1 µM, first compound 0.0316 µM
# [20] = second compound 1 µM, first compound 0.1 µM
# [21] = second compound 1 µM, first compound 0.316 µM
# [22] = second compound 1 µM, first compound 1 µM
# [23] = second compound 1 µM, first compound 3.16 µM
# [24] = second compound 1 µM, first compound 10 µM
# [25] = second compound 3.16 µM, first compound 0.0316 µM
# [26] = second compound 3.16 µM, first compound 0.1 µM
# [27] = second compound 3.16 µM, first compound 0.316 µM
# [28] = second compound 3.16 µM, first compound 1 µM
# [29] = second compound 3.16 µM, first compound 3.16 µM
# [30] = second compound 3.16 µM, first compound 10 µM
# [31] = second compound 10 µM, first compound 0.0316 µM
# [32] = second compound 10 µM, first compound 0.1 µM
# [33] = second compound 10 µM, first compound 0.316 µM
# [34] = second compound 10 µM, first compound 1 µM
# [35] = second compound 10 µM, first compound 3.16 µM
# [36] = second compound 10 µM, first compound 10 µM
# 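Also: spheroids exposed to the agents for 7 days.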
smiles,measurement,setting,value
C=C(F)C(=O)N1CCN(c2nc(OCC3CCCN3C)nc3c2CCN(c2cccc4cccc(Cl)c24)C3)CC1CC#N (centres undefined) + CN1CCN(c2cc(C(=O)Nc3cc4cc(-c5cnn(C)c5)ccc4cn3)ccn2)CC1,pIC50,second compound 0.0316 µM,5.39
same,pIC50,second compound 0.1 µM,5.45
same,pIC50,second compound 0.316 µM,> 7.50
same,pIC50,second compound 1 µM,> 7.50
same,pIC50,second compound 3.16 µM,> 7.50
same,pIC50,second compound 10 µM,> 7.50
same,"viability, T/C",[1],103%
same,"viability, T/C",[2],99.5%
same,"viability, T/C",[3],96.9%
same,"viability, T/C",[4],91.5%
same,"viability, T/C",[5],63%
same,"viability, T/C",[6],3.75%
same,"viability, T/C",[7],80.5%
same,"viability, T/C",[8],90.8%
same,"viability, T/C",[9],81.7%
same,"viability, T/C",[10],81.6%
same,"viability, T/C",[11],55.7%
same,"viability, T/C",[12],1.67%
same,"viability, T/C",[13],35.2%
same,"viability, T/C",[14],38.1%
same,"viability, T/C",[15],34.7%
same,"viability, T/C",[16],34.3%
same,"viability, T/C",[17],22.8%
same,"viability, T/C",[18],3.9%
same,"viability, T/C",[19],0.25%
same,"viability, T/C",[20],4.59%
same,"viability, T/C",[21],1.43%
same,"viability, T/C",[22],0.34%
same,"viability, T/C",[23],1.34%
same,"viability, T/C",[24],0.52%
same,"viability, T/C",[25],2.92%
same,"viability, T/C",[26],0.86%
same,"viability, T/C",[27],1.39%
same,"viability, T/C",[28],1.82%
same,"viability, T/C",[29],5.78%
same,"viability, T/C",[30],0.76%
same,"viability, T/C",[31],4.95%
same,"viability, T/C",[32],2.58%
same,"viability, T/C",[33],0.33%
same,"viability, T/C",[34],0.79%
same,"viability, T/C",[35],1.9%
same,"viability, T/C",[36],0.96%
CC(CO)NC(=O)c1cc(-c2ccc(Cl)cc2)nn(-c2cnn(C)c2)c1=O (centres undefined) + CN1CCN(c2cc(C(=O)Nc3cc4cc(-c5cnn(C)c5)ccc4cn3)ccn2)CC1,pIC50,second compound 0.0316 µM,< 5.00
same,pIC50,second compound 0.1 µM,< 5.00
same,pIC50,second compound 0.316 µM,> 7.50
same,pIC50,second compound 1 µM,> 7.50
same,pIC50,second compound 3.16 µM,> 7.50
same,pIC50,second compound 10 µM,> 7.50
same,"viability, T/C",[1],108%
same,"viability, T/C",[2],99.5%
same,"viability, T/C",[3],114%
same,"viability, T/C",[4],106%
same,"viability, T/C",[5],105%
same,"viability, T/C",[6],97.6%
same,"viability, T/C",[7],86.1%
same,"viability, T/C",[8],92.1%
same,"viability, T/C",[9],94.7%
same,"viability, T/C",[10],98%
same,"viability, T/C",[11],92.6%
same,"viability, T/C",[12],82.6%
same,"viability, T/C",[13],32.2%
same,"viability, T/C",[14],39%
same,"viability, T/C",[15],35.2%
same,"viability, T/C",[16],39.5%
same,"viability, T/C",[17],38%
same,"viability, T/C",[18],33.9%
same,"viability, T/C",[19],0.23%
same,"viability, T/C",[20],0.27%
same,"viability, T/C",[21],1.91%
same,"viability, T/C",[22],1.81%
same,"viability, T/C",[23],1.3%
same,"viability, T/C",[24],2.16%
same,"viability, T/C",[25],2.73%
same,"viability, T/C",[26],1.98%
same,"viability, T/C",[27],1.71%
same,"viability, T/C",[28],0.57%
same,"viability, T/C",[29],3.9%
same,"viability, T/C",[30],2.11%
same,"viability, T/C",[31],0.74%
same,"viability, T/C",[32],0.62%
same,"viability, T/C",[33],0.43%
same,"viability, T/C",[34],1%
same,"viability, T/C",[35],0.24%
same,"viability, T/C",[36],3.1%
